From PMC11674141, “Antimicrobial activity and synergistic effect of phage-encoded antimicrobial peptides with colistin and outer membrane permeabilizing agents against Acinetobacter baumannii” (PeerJ, 2024)
Read-outs that look alike come from different tables or passages of the source. Where a SMILES comes first, the peptide text is derived from it. Bridges are numbered along the chain shown (N, C = ends). Where no end group is shown, it is not given here. [ ]: non-standard residue; d: D form. The star is where a group is joined. X1 = CC[C@H](C)CCCCC(=O)*; Dab = NCC[C@H](N)C(=O)O

Assays:
A. baumannii ATCC19606 [1] = conditions: for MIC alone: ATCC19606, checkerboard, agent alone
Bacillus subtilis = conditions: B. subtilis, sensitive
Staphylococcus aureus = conditions: S. aureus, sensitive
A. baumannii ATCC19606 [2] = conditions: for Minimum Inhibitory Concentration (MIC): A. baumannii 19606, sensitive
HepG2 cell line = test: MTT cell viability assay; type: cell-based, human; design: key to Mean cell viability (Mean 2; control = 100): % viability relative to control (control = 100%); conditions: for IC50 (reduction of viable cells to 50%): 24 h, three independent experiments; for Mean cell viability (Mean 2; control = 100): mean of n = 3
Procedure: We aimed to determine the effects of peptides on cell viability and proliferation in the human hepatocellular carcinoma HepG2 cell line. The MTT assay was performed as described by [Muangpat et al. (2022)] with some modifications. The cells were cultured in Dulbecco’s Modified Eagle Medium (DMEM; Sigma-Aldrich, St. Louis, MO, USA), supplemented with 10% fetal bovine serum (FBS), 100 U/ml penicillin, and 100 μg/ml streptomycin at 37 °C in 5% CO^2 and 95% humidity. The cells were seeded into a 96-well plate at a density of 1 × 10^4 cells/well and allowed to adhere overnight. Then, the cells were exposed for 24 h to various concentrations of peptides. The control cells were cultured in complete DMEM medium containing 0.2% DMSO. After the 24-h incubation period, 20 μL of MTT solution (5 mg/mL in PBS) (Tokyo Chemical Industry Co., Ltd., Tokyo, Japan) was added to each well and incubated for another 2 h at 37 °C. The culture medium was then removed, and formazan crystals formed by viable cells were dissolved in 100 μL of DMSO before measuring the absorbance at 590 nm using a microplate spectrophotometer. The effect of the peptide on cell viability was calculated as a percentage of the control, which was arbitrarily assigned a value of 100% viability. The percentage of cell viability was calculated relative to the control group. The IC₅₀ of the peptides was defined as the concentration that caused a 50% reduction in cell viability compared with the control. The MTT assay was conducted in three independent experiments, each with triplicate wells per condition.

Pseudomonas aeruginosa = conditions: P. aeruginosa, sensitive
Klebsiella pneumoniae = conditions: K. pneumoniae, sensitive
Escherichia coli = conditions: E. coli, sensitive
[3] = system: twenty biofilm-forming A. baumannii strains; test: Inhibition of biofilm formation (crystal violet); type: cell-based, Acinetobacter baumannii; design: Percent biofilm forming inhibition: concentration or dose not given beside the values; conditions: for average percent inhibition of biofilm formation: twenty A. baumannii strains, peptide at MIC (312.5, 156.25, 156.25 µg/mL), 24 h, crystal violet OD595
Procedure: We determined the ability of peptides to inhibit biofilm formation in twenty biofilm-forming strains using the method described by [Karyne et al. (2020)] with some modifications. Briefly, biofilm-forming strains of A. baumannii were adjusted to an equivalent of the 0.5 McFarland standard in 2× Luria Bertani (LB) broth supplemented with 20% glucose. Then, 50 µL of A. baumannii and 50 µL of peptides were added. […] The plates were incubated overnight at 37 °C. After 24 h of incubation, the culture medium was gently removed, and the wells were washed three times with phosphate-buffered saline. The adherent cells were fixed with absolute methanol for 10 min, stained with 0.4% crystal violet for 15 min, and washed three times with sterile distilled water, then air-dried. The plates were then filled with 250 µL of 33% acetic acid for 15 min. The absorbance at OD595 nm was determined. All experiments were performed in three independent assays, each repeated in triplicate, and the percentage of biofilm reduction was calculated based on treated wells vs. non-treated wells.

[4] = A. baumannii 19,606, microdilution, MHB, 37 °C overnight, triplicate samples

| Compound | MIC alone (A. baumannii ATCC19606 [1]) | Minimum Inhibitory Concentration (MIC) (MDR-AB, XDR-AB; strain AB003, MDR-AB) | Minimum Inhibitory Concentration (MIC) (MDR-AB, XDR-AB; strain AB183, XDR-AB) | Minimum Inhibitory Concentration (MIC) (MDR-AB, XDR-AB; strain AB329, XDR-AB) | Minimum Inhibitory Concentration (MIC) (MDR-AB, XDR-AB; strain CR89, MDR-AB) | Minimum Inhibitory Concentration (MIC) (Bacillus subtilis) | Minimum Inhibitory Concentration (MIC) (Staphylococcus aureus) | Minimum Inhibitory Concentration (MIC) (A. baumannii ATCC19606 [2]) | MIC values (A. baumannii ATCC19606 [2]; [4]) | MIC (ATCC19606) (A. baumannii ATCC19606 [2]; A. baumannii ATCC19606) | IC50 (reduction of viable cells to 50%) (HepG2 cell line) | Minimum Inhibitory Concentration (MIC) (Pseudomonas aeruginosa) | Minimum Inhibitory Concentration (MIC) (Klebsiella pneumoniae) | Minimum Inhibitory Concentration (MIC) (Escherichia coli) | average percent inhibition of biofilm formation [3] | FIC index, peptide plus colistin (A. baumannii ATCC19606 [1]; ATCC19606) | MIC (ATCC19606) (A. baumannii ATCC19606 [2]; ATCC19606) | MIC values (A. baumannii ATCC19606 [2]; ATCC19606) | other results |
| --- | --- | --- | --- | --- | --- | --- | --- | --- | --- | --- | --- | --- | --- | --- | --- | --- | --- | --- | --- |
| LIAIQIAIKGMLNGWFTGVGFRRKR-NH2 [PE04-1-NH2] | 156.25 µg/mL | – | – | – | – | – | – | – | – | – | – | – | – | – | – | – | – | – | – |
| LIAIQIAIKGMLNGWFTGVGFRRKR [PE04-1] | – | 312.5 µg/mL | 156.25 µg/mL | 625 µg/mL | 312.5 µg/mL | 39.06 µg/mL | 39.06 µg/mL | 312.5 µg/mL | 312.5 µg/mL | 312.5 µg/mL | 1,440 ug/ml | 2500 µg/mL | 2500 µg/mL | 2500 µg/mL | 58.11% | 0.19 | – | – | Percent biofilm forming inhibition ([3]; strain AB23, MDR-AB / CR-AB, 2013): 92.1075%; Percent biofilm forming inhibition ([3]; strain CR65-47, MDR-AB / CR-AB, 2022): 61.4919% |
| WNKGRVKGKLEVIPGLTNRRKKEKA [PE02-2] | – | – | – | – | – | – | – | – | – | – | – | – | – | – | – | – | 1250 µg/mL | 1,250 ug/ml | – |
| KIAIQIAIKGMLNGWFTGVGFRRKR [PE04-2] | – | 78.12 µg/mL | 78.12 µg/mL | 156.25 µg/mL | 156.25 µg/mL | 39.06 µg/mL | 39.06 µg/mL | 156.25 µg/mL | 156.25 µg/mL | 156.25 µg/mL | 424.1 µg/mL | 312.5 µg/mL | 312.5 µg/mL | 156.25 µg/mL | 91.92% | 0.14 | – | – | Mean cell viability (Mean 2; control = 100) (HepG2 cell line; peptide concentration 25 (unit not given)): 90.16; Mean cell viability (Mean 2; control = 100) (HepG2 cell line; peptide concentration 50 (unit not given)): 91.63; Mean cell viability (Mean 2; control = 100) (HepG2 cell line; peptide concentration 156.25 (unit not given)): 79.64; Mean cell viability (Mean 2; control = 100) (HepG2 cell line; peptide concentration 300 (unit not given)): 71.67; Mean cell viability (Mean 2; control = 100) (HepG2 cell line; peptide concentration 600 (unit not given)): 32.89; Mean cell viability (Mean 2; control = 100) (HepG2 cell line; peptide concentration 800 (unit not given)): 14.6; Percent biofilm forming inhibition ([3]; strain AB57, XDR-AB / CR-AB, 2013): 92.3659%; Percent biofilm forming inhibition ([3]; strain AB263, MDR-AB, 2014): 88.4382%; FICI (A. baumannii ATCC19606 [1]; ATCC19606): 0.25 |
| LNSKDYAGAAAQFLVWNKGRVKGKL [PE02-1] | – | – | – | – | – | – | – | – | – | – | – | – | – | – | – | – | > 2500 µg/mL | >2,500 ug/ml | – |
| CC[C@H](C)CCCCC(=O)N[C@@H](CCN)C(=O)N[C@H](C(=O)N[C@@H](CCN)C(=O)N[C@H]1CCNC(=O)[C@H]([C@@H](C)O)NC(=O)[C@H](CCN)NC(=O)[C@H](CCN)NC(=O)[C@H](CC(C)C)NC(=O)[C@@H](CC(C)C)NC(=O)[C@H](CCN)NC1=O)[C@@H](C)O [Colistin] (X1-[Dab]T[Dab][Dab][Dab][dL]L[Dab][Dab]T; lactam 4-C (inferred); N-terminus assumed) | 2 µg/mL | – | – | – | – | – | – | – | – | – | – | – | – | – | – | – | – | – | Colistin Resistance MIC (MDR-AB, XDR-AB; strain AB57, XDR-AB / CR-AB): 1 µg/mL; Colistin Resistance MIC (MDR-AB, XDR-AB; strain AB59, XDR-AB / CR-AB): 0.5 µg/mL; Colistin Resistance MIC (MDR-AB, XDR-AB; strain AB329, XDR-AB / CR-AB): 1 µg/mL; Colistin Resistance MIC (MDR-AB, XDR-AB; strain CR65-40, MDR-AB / CR-AB): 8 µg/mL; Colistin Resistance MIC (MDR-AB, XDR-AB; strain CR65-43, XDR-AB / CR-AB): 4 µg/mL; Colistin Resistance MIC (MDR-AB, XDR-AB; strain CR65-47, MDR-AB / CR-AB): 2 µg/mL; Colistin Resistance MIC (MDR-AB, XDR-AB; strain CR65-51, XDR-AB / CR-AB): 2 µg/mL; Colistin Resistance MIC (MDR-AB, XDR-AB; strain CR65-55, MDR-AB / CR-AB): 2 µg/mL; Colistin Resistance MIC (MDR-AB, XDR-AB; strain CR65-71, MDR-AB / CR-AB): 4 µg/mL; Colistin Resistance MIC (MDR-AB, XDR-AB; strain CR65-74, XDR-AB / CR-AB): 2 µg/mL; MIC values of outer membrane permeabilizers and colistin (A. baumannii ATCC19606 [2]; A. baumannii 19606, microdilution, triplicate samples): 2 µg/mL |
